Test results taken from patent US20120083522A1, “MODULATION OF INFLAMMATORY RESPONSES BY FACTOR XI” (Isis Pharmaceuitcals, inc., priority 2009, published 2012).

Assays:
[1] = tested on: human Factor XI mRNA; assay: Antisense inhibition in HepG2 cells by microwalk gapmers, 75 nM, lipofectin (Example 3); assay type: cell-based; conditions: HepG2 cells, 75 nM, oligonucleotides targeted to nucleobases 1275 to 1318 of SEQ ID NO: 1
Method in brief: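 HepG2 cells (10,000 per well) were transfected with 75 nM gapmer using lipofectin and treated for about 24 h. Factor XI mRNA was quantified by real-time PCR, normalized to RiboGreen total RNA and expressed as percent inhibition versus untreated controls.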

[2] = tested on: human Factor XI mRNA; assay: Antisense inhibition in HepG2 cells by microwalk gapmers, 8,000 nM, electroporation (Example 14); assay type: cell-based; conditions: HepG2 cells, 8,000 nM
Method in brief: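 HepG2 cells electroporated with 8,000 nM 2′-MOE phosphorothioate gapmer (5-10-5, 5-8-5 or 6-8-6). Factor XI mRNA measured after ~24 h by qRT-PCR, normalised to RIBOGREEN total RNA. Reported as percent inhibition versus untreated cells.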

[3] = set-up: species or system Sprague-Dawley rats; conditions: rat, in vivo, sc, 20 mg/kg
Method: The concentration of the full-length oligonucleotide as well as the total oligonucleotide concentration (including the degraded form) was measured. The method used is a modification of previously published methods (Leeds et al., 1996; Geary et al., 1999) which consist of a phenol-chloroform (liquid-liquid) extraction followed by a solid phase extraction. An internal standard (ISIS 355868, a 27-mer 2′-O-methoxyethyl modified phosphorothioate oligonucleotide, […], designated herein as SEQ ID NO: 270) was added prior to extraction. […] The results are presented in Tables 98 and 99, expressed as μg/g liver or kidney tissue.

[4] = tested on: human Factor XI mRNA; assay: Dose-dependent inhibition and IC50 in HepG2 cells, electroporation (Example 15); assay type: cell-based
Method: Cells were plated at a density of 20,000 cells per well and transfected using electroporation with 123.46 nM, 370.37 nM, 1,111.11 nM, 3,333.33 nM and 10,000 nM concentrations of antisense oligonucleotide, as specified in Table 52. After a treatment period of approximately 16 hours, RNA was isolated from the cells and Factor XI mRNA levels were measured by quantitative real-time PCR. Human Factor XI primer probe set RTS 2966 was used to measure mRNA levels. Factor XI mRNA levels were adjusted according to total RNA content, as measured by RIBOGREEN. Results are presented as percent inhibition of Factor XI, relative to untreated control cells.

Substance: 416848 (antisense CACAGTTTCTGGCAGGCCTC; 5-10-5 gapmer, wing sugar chemistry not given here, further chemistry not given here) [compound 416848]
- % inhibition of human Factor XI mRNA levels [1]: 86%
- Percent inhibition of human Factor XI mRNA levels [2]: 87%
- Half-life in the liver and kidney [3]: 24 days

Substance: 416851 (antisense GTGCACAGTTTCTGGCAGGC; 5-10-5 gapmer, wing sugar chemistry not given here, further chemistry not given here) [compound 416851]
- % inhibition of human Factor XI mRNA levels [1]: 88%
- Percent inhibition of human Factor XI mRNA levels [2]: 89%
- percent inhibition of Factor XI mRNA ([4]; electroporation, 123.47 nM): 13%
- percent inhibition of Factor XI mRNA ([4]; electroporation, 370.37 nM): 35%
- percent inhibition of Factor XI mRNA ([4]; electroporation, 1,111.11 nM): 36%
- percent inhibition of Factor XI mRNA ([4]; electroporation, 3,333.33 nM): 64%
- percent inhibition of Factor XI mRNA ([4]; electroporation, 10,000.0 nM): 72%
- Half-life in the liver and kidney [3]: 24 days

Substance: 416852 (antisense TGGTGCACAGTTTCTGGCAG; 5-10-5 gapmer, wing sugar chemistry not given here, further chemistry not given here) [compound 416852]
- % inhibition of human Factor XI mRNA levels [1]: 84%
- Percent inhibition of human Factor XI mRNA levels [2]: 87%
- Half-life in the liver and kidney [3]: 28 days

Substance: 416859 (antisense GACGGCATTGGTGCACAGTT; 5-10-5 gapmer, wing sugar chemistry not given here, further chemistry not given here) [compound 416859]
- % inhibition of human Factor XI mRNA levels [1]: 90%
- Percent inhibition of human Factor XI mRNA levels [2]: 85%
- Half-life in the liver and kidney [3]: 19 days

Substance: 416860 (antisense CGGACGGCATTGGTGCACAG; 5-10-5 gapmer, wing sugar chemistry not given here, further chemistry not given here) [compound 416860]
- % inhibition of human Factor XI mRNA levels [1]: 88%
- Percent inhibition of human Factor XI mRNA levels [2]: 89%
- percent inhibition of Factor XI mRNA ([4]; electroporation, 123.47 nM): 0%
- percent inhibition of Factor XI mRNA ([4]; electroporation, 370.37 nM): 28%
- percent inhibition of Factor XI mRNA ([4]; electroporation, 1,111.11 nM): 39%
- percent inhibition of Factor XI mRNA ([4]; electroporation, 3,333.33 nM): 41%
- percent inhibition of Factor XI mRNA ([4]; electroporation, 10,000.0 nM): 40%
- Half-life in the liver and kidney [3]: 21 days

Substance: 416861 (antisense GCGGACGGCATTGGTGCACA; 5-10-5 gapmer, wing sugar chemistry not given here, further chemistry not given here) [compound 416861]
- % inhibition of human Factor XI mRNA levels [1]: 92%
- Percent inhibition of human Factor XI mRNA levels [2]: 90%
- percent inhibition of Factor XI mRNA ([4]; electroporation, 123.47 nM): 0%
- percent inhibition of Factor XI mRNA ([4]; electroporation, 370.37 nM): 15%
- percent inhibition of Factor XI mRNA ([4]; electroporation, 1,111.11 nM): 27%
- percent inhibition of Factor XI mRNA ([4]; electroporation, 3,333.33 nM): 66%
- percent inhibition of Factor XI mRNA ([4]; electroporation, 10,000.0 nM): 80%
- Half-life in the liver and kidney [3]: 25 days

Substance: 416863 (antisense CAGCGGACGGCATTGGTGCA; 5-10-5 gapmer, wing sugar chemistry not given here, further chemistry not given here) [compound 416863]
- % inhibition of human Factor XI mRNA levels [1]: 83%
- Percent inhibition of human Factor XI mRNA levels [2]: 86%
- Half-life in the liver and kidney [3]: 20 days

Substance: 416866 (antisense CTGGCAGCGGACGGCATTGG; 5-10-5 gapmer, wing sugar chemistry not given here, further chemistry not given here) [compound 416866]
- % inhibition of human Factor XI mRNA levels [1]: 88%
- Percent inhibition of human Factor XI mRNA levels [2]: 84%
- Half-life in the liver and kidney [3]: 16 days

Substance: 416867 (antisense ACTGGCAGCGGACGGCATTG; 5-10-5 gapmer, wing sugar chemistry not given here, further chemistry not given here) [compound 416867]
- % inhibition of human Factor XI mRNA levels [1]: 83%
- Percent inhibition of human Factor XI mRNA levels [2]: 85%
- Half-life in the liver and kidney [3]: 19 days
